Values after ≈ are worked out from the molar mass of the structure shown.
tested on: Candida albicans; test: Antifungal activity against Candida albicans DSY654 harboring CDR1-CDR2 double mutant assessed as inhibition of fungal growth incubated for 24 hrs by alamar blue assay; type: functional; conditions: not given

SMILES | MIC [µg/mL]
COC(=O)C1=CO[C@H]2OC(=O)[C@H]3[C@H]2[C@H]1[C@@H]1[C@H](C[C@H]3OC(C)=O)C1(C)C | 16 (≈ 45.7 µM)

tested on: not listed separately; test: Cytotoxicity against mouse Hepa1c1c7 cells incubated for 24 hrs by MTT assay; type: functional, cell-based; conditions: Hepa-1c1c7, 24 h

SMILES | IC50 [µM]
C=C1CC[C@H]2[C@](C)(CC[C@H](O)C(C)(C)O)CCC[C@]2(COC(C)=O)[C@H]1CO | > 50
C=C1C[C@H](O)[C@@H]2C3(CCC[C@@]2(C)CCC=C(C)C)[C@H](O)OC[C@@H]13 (some centres undefined) | > 50
COC(=O)C1=CO[C@H]2OC(=O)[C@H]3[C@H]2[C@H]1[C@@H]1[C@H](C[C@H]3OC(C)=O)C1(C)C | > 50
C=C1CC[C@H]2[C@](C)(CC[C@H](O)C(C)(C)O)CCC[C@]2(CO)[C@H]1CO | > 50
C=C1CC[C@H]2[C@](C)(CC[C@H](O)C(C)(C)O)[C@@H](OC(C)=O)CC[C@]2(CO)[C@H]1CO | > 50
C=C1CC[C@H]2[C@](C)(CC[C@H](OC(C)=O)C(C)(C)O)[C@@H](OC(C)=O)CC[C@]2(CO)[C@H]1CO | > 50
C=C1CC[C@H]2[C@](C)(CC[C@H](OC(C)=O)C(C)(C)O)CCC[C@]2(CO)[C@H]1CO | > 50
CC(=O)O[C@H]1CC[C@@]23CO[C@](C)(CC[C@H]2[C@]1(C)CC[C@H](O)C(C)(C)O)[C@@H]3CO | > 50

— ChEMBL document CHEMBL5335828, “Sacculatane Diterpenoids from the Liverwort Plagiochila nitens Collected in China” (J Nat Prod, 2024)
